Test results taken from paper PMC2745946 (International immunopharmacology, 2009).
Entries after “also recorded” stand apart in the source; their conditions may differ. Where two headings read alike, the source gives them in different places.

Key:
[1] = test system: NF-κB; assay: TNF-α induced NF-κB luciferase reporter assay in C2C12 myoblasts; format: cell-based; conditions: for NF-κB inhibition in myoblasts: 0.0001-10μM, TNF-α 10ng/ml; for Luciferase activity (reduced to): 1μg/ml, myoblasts
[2] = test system: NF-κB; assay: TNF-α induced NF-κB luciferase reporter assay in C2C12 myotubes; format: cell-based; conditions: 0.0001-10μM, TNF-α 10ng/ml
[3] = test system: C2C12 myotubes; assay: MTT cell viability assay in C2C12 myotubes; conditions: for Myotubes % Cell Viability: MTT at respective IC50 concentration, relative to untreated controls
[4] = test system: NF-κB p65; assay: Immunostaining for NF-κB p65 nuclear translocation in C2C12 myoblasts; format: cell-based; conditions: drug 1μg/ml 24 hours, then TNF-α 24 hours
[5] = test system: NF-κB; conditions: read-out: IC50, LPS-induced NF-κB; macrophage cell line; cited from earlier work
[6] = 10mg/kg; cited from earlier work
[7] = MTT cell viability assay in C2C12 myotubes; conditions: mouse
[8] = MTT cell viability assay in C2C12 myoblasts; conditions: mouse
[9] = test system: NF-κB; conditions: read-out: IC50, NF-κB inhibition; macrophage reporter cell line; cited from earlier work
[10] = mdx mouse; 5mg/kg; cited from earlier work
[11] = mdx model; 1.2mg/kg; cited from earlier work
[12] = in vitro; conditions: mouse
[13] = test system: NF-κB; conditions: primary human peripheral blood and mononuclear cells; cited from earlier work
[14] = test system: C2C12 myoblasts; assay: MTT cell viability assay in C2C12 myoblasts; conditions: MTT at respective IC50 concentration; relative to untreated controls
[15] = Myoblast, read-out: NF-κB inhibition luciferase activity, Mean ± SD

In the case of CC(C)(C)c1ccc(S(=O)(=O)/C=C/C#N)cc1 [Bay 11-7085], the “NF-κB inhibition in myoblasts” value [1] is reported as “but not myoblasts”, the “NF-κB inhibition in myotubes (words)” value ([2]; listed as BAY 11-7085) is reported as “no inhibition” and the “NF-κB inhibition in myotubes (words)” value ([2]; listed as Bay-11 7085) is reported as “exhibited NF-κB inhibition”. For the same compound, the “Myotubes % Cell Viability” value [3] was 87.2%.
In the case of CC1=C(O)C(=O)C=C2C1=CC=C1[C@@]2(C)CC[C@@]2(C)[C@@H]3C[C@](C)(C(=O)O)CC[C@]3(C)CC[C@]12C [Celastrol], the IC50 ([1]; Mus musculus, C2C12, read-out: IC50 in myocytes) is listed as about 1 nM, the “NF-κB nuclear translocation (qualitative)” value [4] is listed as “appeared to block nuclear translocation; also recorded: reduced the amount of nuclear translocation” and the IC50 [5] is listed as 270 nM. For the same compound, the Paw swelling [6] was “reduce paw swelling a similar amount as Prednisolone”, the viability at 48 h [7] was 72.1% and the Toxicity to myotubes ([3]; 10μg/ml, MTT) was 35%. For the same compound, the viability at 48 h [8] was 83.9%.
For O=C(O[C@@H]1Cc2c(O)cc(O)cc2O[C@@H]1c1cc(O)c(O)c(O)c1)c1cc(O)c(O)c(O)c1 [EGCG, Epigallocatechin gallate], the “NF-κB inhibition in myoblasts” value [1] was “did not inhibit NF-κB”, the “NF-κB inhibition in myocytes, myoblasts and myotubes together” value (“NF-κB inhibition in myocytes” for short) [1] was “mostly ineffective” and the “NF-κB inhibition in myotubes (words)” value [2] was “did not inhibit NF-κB”. For the same compound, the IC50 [9] was 12000 nM and the “Muscle histology, force contractions and creatine kinase leakage” value [10] was “improve mdx mouse muscle histology, force contractions and creatine kinase leakage”.
In the case of Cc1ccc(=O)n(-c2ccccc2)c1 [Pirfenidone], the “NF-κB inhibition in myoblasts” value [1] is reported as “did not inhibit NF-κB”, the “NF-κB inhibition in myocytes” value [1] is reported as “mostly ineffective” and the “NF-κB inhibition in myotubes (words)” value [2] is reported as “did not inhibit NF-κB”. For the same compound, the Cardiac function [11] was “improve cardiac function”.
C[C@]12C=CC(=O)C=C1CC[C@@H]1[C@@H]2[C@@H](O)C[C@@]2(C)[C@H]1CC[C@]2(O)C(=O)CO [Prednisolone] gave an inhibition at 0.1 µM [1, 15] of 51.7 ± 13.6%, an inhibition at 1 µM [1, 15] of 79.2 ± 9.22% and an inhibition at 10 µM [1, 15] of 85.4 ± 4.59%. The “Luciferase activity (reduced to)” value ([1]; long regime: 24 h pretreatment, 24 h TNF-α) was 38%, the “NF-κB inhibition in myocytes” value [1] was “effective at inhibiting the NF-κB pathway” and the “Luciferase activity (reduced to)” value ([1]; short regime: 30min pretreatment, 3hr TNF-α) was 49.5%. For the same compound, the “NF-κB nuclear translocation (qualitative)” value [4] was “appeared to block nuclear translocation; also recorded: reduced the amount of nuclear translocation”, the viability at 48 h [12] was 81.6% and the viability at 48 h ([8]; C2C12 myoblasts containing an NF-κB luciferase reporter) was 78.8%.
In the case of CC1=C(CO)C(=O)O[C@@H]([C@@H](C)[C@H]2CC[C@H]3[C@@H]4C[C@H]5O[C@]56[C@@H](O)C=CC(=O)[C@]6(C)[C@H]4CC[C@]23C)C1 [Withaferin], the “NF-κB inhibition in myocytes” value [1] is listed as “effective at inhibiting NF-κB”, the Maximal effective dose [13] is listed as 1.0 mg/mL and the “Myotubes % Cell Viability” value [3] is listed as 72.7%. The “Myoblasts % Cell Viability” value [14] was 61.1%.
In the case of “Thymosin β4: small actin-sequestering protein that reduces inflammation and promotes healing in multiple tissues”, the “NF-κB inhibition in myoblasts” value [1] is reported as “did not inhibit NF-κB”, the “NF-κB inhibition in myocytes” value [1] is reported as “mostly ineffective” and the “NF-κB inhibition in myotubes (words)” value [2] is reported as “did not inhibit NF-κB”.
